Data on 11 compounds can be found in patent US20260191968A1, “PROTAC DEGRADERS OF MLLT1 AND/OR MLLT3” (DARK BLUE THERAPEUTICS LTD, priority 2024, published 2026).

Structures are written as SMILES.

The target in this test is T1, MLLT1 (Homo sapiens, UniProt Q03111).
T1 construct: host or cells: MV4-11
T1 sequence (Q03111 1-559): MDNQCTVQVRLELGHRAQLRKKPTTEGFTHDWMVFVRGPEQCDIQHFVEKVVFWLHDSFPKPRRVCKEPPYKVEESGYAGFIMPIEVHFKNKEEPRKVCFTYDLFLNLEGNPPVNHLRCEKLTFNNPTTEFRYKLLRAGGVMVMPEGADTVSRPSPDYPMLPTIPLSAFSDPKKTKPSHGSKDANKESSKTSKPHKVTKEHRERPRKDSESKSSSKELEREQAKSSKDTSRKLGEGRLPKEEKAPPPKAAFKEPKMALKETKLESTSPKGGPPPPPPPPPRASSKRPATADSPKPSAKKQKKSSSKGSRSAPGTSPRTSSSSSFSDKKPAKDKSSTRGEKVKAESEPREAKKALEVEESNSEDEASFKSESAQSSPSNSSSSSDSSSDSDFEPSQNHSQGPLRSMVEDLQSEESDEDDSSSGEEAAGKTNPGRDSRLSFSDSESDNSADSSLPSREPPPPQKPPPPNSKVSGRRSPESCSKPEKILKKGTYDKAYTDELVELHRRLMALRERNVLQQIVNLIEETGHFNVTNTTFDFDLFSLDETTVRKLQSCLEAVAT
Nature of the test: MLLT1 degradation assay in MV4-11 cells (JESS chemiluminescent detection), three concentrations, 24 h. Type of test: cell-based. As to conditions: with respect to DMSO control. The method, then:
MLLT1 degradation efficacy of compounds were tested in an automated chemiluminescent detection system (JESS, Cat #004-650). […] 10 mM DMSO stocks were prepared, and cells were treated with three concentrations of test compounds viz. 1000, 100 and 10 nM at a final DMSO concentration of 0.1% and incubated for 24 h at 37° C., 5% CO2. […] Post run, data were analysed using “Compass for SW” software for chemiluminescent detection. The peak area for each band was used for the calculation of MLLT1 degradation with respect to DMSO control. Data is shown as “MLLT1% degradation”.

On to `CN1CCC[C@@H]1c1cc2cnc(NC(=O)c3ccc(N4CCC(CC#Cc5ccc6c(c5)CN(C5CCC(=O)NC5=O)C6=O)CC4)nc3)cc2[nH]1` (stereo partly drawn) [Example 224, 6-(4-(3-(2-(2,6-dioxopiperidin-3-yl)-1-oxoisoindolin-5-yl)prop-2-yn-1-yl)piperidin-1-yl)-N-(2-((R)-1-methylpyrrolidin-2-yl)-1H-pyrrolo[3,2-c]pyridin-6-yl)nicotinamide], for which the “MLLT1% Degradation @ 0.01 μM” value was “C (Category C: 25% ≤ C < 50% degradation)”, the “MLLT1% Degradation @ 0.1 μM” value is given as “C (Category C: 25% ≤ C < 50% degradation)” and the “MLLT1% Degradation @ 1 μM” value is listed as “C (Category C: 25% ≤ C < 50% degradation)”.

Consider `CN1CCC[C@@H]1c1cc2cnc(NC(=O)c3ccc(N4CCN(CC5CCN(c6cccc7c6C(=O)N(C6CCC(=O)NC6=O)C7=O)CC5)CC4)nc3)cc2[nH]1` (stereo partly drawn) [Example 5, 6-(4-((1-(2-(2,6-dioxopiperidin-3-yl)-1,3-dioxoisoindolin-4-yl)piperidin-4-yl)methyl)piperazin-1-yl)-N-(2-((R)-1-methylpyrrolidin-2-yl)-1H-pyrrolo[3,2-c]pyridin-6-yl)nicotinamide], for which the “MLLT1% Degradation @ 0.01 μM” value is recorded as “B (Category B: 50% ≤ B < 75% degradation)”, the “MLLT1% Degradation @ 0.1 μM” value is “A (Category A: A ≥ 75% degradation)” and the “MLLT1% Degradation @ 1 μM” value was “A (Category A: A ≥ 75% degradation)”.

For the compound `CN1CCC[C@@H]1c1cc2cnc(NC(=O)c3ccc(N4CC[C@@H](CC#Cc5cccc6c5CN(C5CCC(=O)NC5=O)C6=O)C4)nc3)cc2[nH]1` (stereo partly drawn) [Example 226, 6-((3R)-3-(3-(2-(2,6-dioxopiperidin-3-yl)-1-oxoisoindolin-4-yl)prop-2-yn-1-yl)pyrrolidin-1-yl)-N-(2-((R)-1-methylpyrrolidin-2-yl)-1H-pyrrolo[3,2-c]pyridin-6-yl)nicotinamide], the “MLLT1% Degradation @ 0.01 μM” value is on record as “B (Category B: 50% ≤ B < 75% degradation)”, the “MLLT1% Degradation @ 0.1 μM” value is given as “B (Category B: 50% ≤ B < 75% degradation)” and the “MLLT1% Degradation @ 1 μM” value was “C (Category C: 25% ≤ C < 50% degradation)”.

`CN1CCC[C@@H]1c1[nH]c2cc(NC(=O)c3ccc(OCCC4CCN(c5cccc6c5CN(C5CCC(=O)NC5=O)C6=O)CC4)cc3)ncc2c1Cl` (stereo in doubt) [Example 162, N-(3-chloro-2-((R)-1-methylpyrrolidin-2-yl)-1H-pyrrolo[3,2-c]pyridin-6-yl)-4-(2-(1-(2-((rel-R)-2,6-dioxopiperidin-3-yl)-1-oxoisoindolin-4-yl)piperidin-4-yl)ethoxy)benzamide]: the “MLLT1% Degradation @ 0.01 μM” value is reported as “A (Category A: A ≥ 75% degradation)”, the “MLLT1% Degradation @ 0.1 μM” value is given as “A (Category A: A ≥ 75% degradation)” and the “MLLT1% Degradation @ 1 μM” value is listed as “A (Category A: A ≥ 75% degradation)”.

As for `CN1CCC[C@@H]1c1[nH]c2cc(NC(=O)c3ccc(CCCC4CCN(c5cccc6c5CN([C@H]5CCC(=O)NC5=O)C6=O)CC4)cc3)ncc2c1Cl` [Example 233, N-(3-chloro-2-((R)-1-methylpyrrolidin-2-yl)-1H-pyrrolo[3,2-c]pyridin-6-yl)-4-(3-(1-(2-((S)-2,6-dioxopiperidin-3-yl)-1-oxoisoindolin-4-yl)piperidin-4-yl)propyl)benzamide], the “MLLT1% Degradation @ 0.01 μM” value is “A (Category A: A ≥ 75% degradation)”, the “MLLT1% Degradation @ 0.1 μM” value is recorded as “A (Category A: A ≥ 75% degradation)” and the “MLLT1% Degradation @ 1 μM” value was “A (Category A: A ≥ 75% degradation)”.

On to `CN1CCC[C@@H]1c1cc2cnc(NC(=O)c3ccc(N4CCC(OCC5CCN(c6ccc7c(c6)CN(C6CCC(=O)NC6=O)C7=O)CC5)CC4)nc3)cc2[nH]1` (stereo partly drawn) [Example 228, 6-(4-((1-(2-(2,6-dioxopiperidin-3-yl)-1-oxoisoindolin-5-yl)piperidin-4-yl)methoxy)piperidin-1-yl)-N-(2-((R)-1-methylpyrrolidin-2-yl)-1H-pyrrolo[3,2-c]pyridin-6-yl)nicotinamide], for which the “MLLT1% Degradation @ 0.01 μM” value is given as “C (Category C: 25% ≤ C < 50% degradation)”, the “MLLT1% Degradation @ 0.1 μM” value is recorded as “D (Category D: D < 25% degradation)” and the “MLLT1% Degradation @ 1 μM” value is recorded as “D (Category D: D < 25% degradation)”.

Take `CN1CCC[C@@H]1c1cc2cnc(NC(=O)c3ccc(OCCC4CCN(c5cccc6c5CN(C5CCC(=O)NC5=O)C6=O)CC4)cc3)cc2[nH]1` (stereo in doubt) [Example 80, 4-(2-(1-(2-((rel-S)-2,6-dioxopiperidin-3-yl)-1-oxoisoindolin-4-yl)piperidin-4-yl)ethoxy)-N-(2-((R)-1-methylpyrrolidin-2-yl)-1H-pyrrolo[3,2-c]pyridin-6-yl)benzamide]: the “MLLT1% Degradation @ 0.01 μM” value is reported as “A (Category A: A ≥ 75% degradation)”, the “MLLT1% Degradation @ 0.1 μM” value is listed as “A (Category A: A ≥ 75% degradation)” and the “MLLT1% Degradation @ 1 μM” value is “A (Category A: A ≥ 75% degradation)”.

Consider `CN1CCC[C@@H]1c1cc2cnc(NC(=O)c3ccc(CCCC#Cc4cccc5c4C(=O)N(C4CCC(=O)NC4=O)C5=O)cc3)cc2[nH]1` (stereo partly drawn) [Example 110, 4-(5-(2-(2,6-dioxopiperidin-3-yl)-1,3-dioxoisoindolin-4-yl)pent-4-yn-1-yl)-N-(2-((R)-1-methylpyrrolidin-2-yl)-1H-pyrrolo[3,2-c]pyridin-6-yl)benzamide], for which the “MLLT1% Degradation @ 0.01 μM” value was “C (Category C: 25% ≤ C < 50% degradation)”, the “MLLT1% Degradation @ 0.1 μM” value is given as “A (Category A: A ≥ 75% degradation)” and the “MLLT1% Degradation @ 1 μM” value is listed as “A (Category A: A ≥ 75% degradation)”.

In the case of `CN1CCC[C@@H]1c1cc2cnc(NC(=O)c3ccc(N4CCC(OCC5CCN(c6cccc7c6C(=O)N(C6CCC(=O)NC6=O)C7=O)CC5)CC4)cc3)cc2[nH]1` (stereo partly drawn) [Example 151, 4-(4-((1-(2-(2,6-dioxopiperidin-3-yl)-1,3-dioxoisoindolin-4-yl)piperidin-4-yl)methoxy)piperidin-1-yl)-N-(2-((R)-1-methylpyrrolidin-2-yl)-1H-pyrrolo[3,2-c]pyridin-6-yl)benzamide], the “MLLT1% Degradation @ 0.01 μM” value is reported as “C (Category C: 25% ≤ C < 50% degradation)”, the “MLLT1% Degradation @ 0.1 μM” value is reported as “B (Category B: 50% ≤ B < 75% degradation)” and the “MLLT1% Degradation @ 1 μM” value is on record as “A (Category A: A ≥ 75% degradation)”.

Take `CN1CCC[C@@H]1c1cc2cnc(NC(=O)CCCCCCNc3ccc4c(c3)C(=O)N(C3CCC(=O)NC3=O)C4=O)cc2[nH]1` (stereo partly drawn) [Example 27, 7-{[2-(2,6-dioxopiperidin-3-yl)-1,3-dioxoisoindol-5-yl]amino}-N-{2-[(2R)-1-methylpyrrolidin-2-yl]-1H-pyrrolo[3,2-c]pyridin-6-yl}heptanamide]: the “MLLT1% Degradation @ 0.01 μM” value is “C (Category C: 25% ≤ C < 50% degradation)”, the “MLLT1% Degradation @ 0.1 μM” value is given as “C (Category C: 25% ≤ C < 50% degradation)” and the “MLLT1% Degradation @ 1 μM” value is “B (Category B: 50% ≤ B < 75% degradation)”.

For `Cc1cc(CCOc2ccc(C(=O)Nc3cc4[nH]c([C@H]5CCCN5C)cc4cn3)c(F)c2)ccc1-c1cccc2c1CN(C1CCC(=O)NC1=O)C2=O` (stereo partly drawn) [Example 208, 4-(4-(2-(2,6-dioxopiperidin-3-yl)-1-oxoisoindolin-4-yl)-3-methylphenethoxy)-2-fluoro-N-(2-((R)-1-methylpyrrolidin-2-yl)-1H-pyrrolo[3,2-c]pyridin-6-yl)benzamide], the “MLLT1% Degradation @ 0.01 μM” value is on record as “A (Category A: A ≥ 75% degradation)”, the “MLLT1% Degradation @ 0.1 μM” value is reported as “A (Category A: A ≥ 75% degradation)” and the “MLLT1% Degradation @ 1 μM” value is “A (Category A: A ≥ 75% degradation)”.
